Data from ChEMBL document CHEMBL1201862, “PubChem BioAssay data set” (2004).
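Five concentrations, 48 hours, 96-well plates. Here, GI50 denotes the concentration required for 50% inhibition of growth.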 The source made the active and inactive calls. No stated cut-off is given here; in the data, active = GI50 up to about 1.1 µM and inactive = higher.

How the values were obtained:
Assay in all cases: growth of human tumour cells (NCI), 48 h
[1] = test system: ACHN
[2] = test system: SNB-75
[3] = test system: MDA-MB-435
[4] = test system: SK-OV-3
[5] = test system: MDA-N
[6] = test system: UACC-62
[7] = test system: HOP-62
[8] = test system: HCC 2998
[9] = test system: PC-3
[10] = test system: HT-29
[11] = test system: Hs-578T
[12] = test system: U-251
[13] = test system: EKVX
[14] = test system: SNB-19
[15] = test system: UO-31
[16] = test system: HL-60
[17] = test system: T47D
[18] = test system: SR
[19] = test system: Malme-3M
[20] = test system: NCI-H226
[21] = test system: OVCAR-5
[22] = test system: UACC-257
[23] = test system: OVCAR-8
[24] = test system: TK-10
[25] = test system: SF-539
[26] = test system: IGROV-1
[27] = test system: SW-620
[28] = test system: OVCAR-4
[29] = test system: COLO 205
[30] = test system: HOP-92
[31] = test system: M14
[32] = test system: MCF7
[33] = test system: KM12
[34] = test system: SF-268
[35] = test system: SN12C
[36] = test system: A498
[37] = test system: NCI-H522
[38] = test system: MDA-MB-231
[39] = test system: HCT-116
[40] = test system: SK-MEL-28
[41] = test system: OVCAR-3
[42] = test system: NCI-H460
[43] = test system: DU-145
[44] = test system: K562
[45] = test system: A549
[46] = test system: SK-MEL-5
[47] = test system: CAKI-1
[48] = test system: CCRF-CEM
[49] = test system: BT-549
[50] = test system: SF-295
[51] = test system: MOLT-4
[52] = test system: 786-0
[53] = test system: RXF 393
[54] = test system: NCI-H23
[55] = test system: SK-MEL-2
[56] = test system: LOX IMVI
[57] = test system: HCT-15
[58] = test system: RPMI-8226
[59] = test system: NCI/ADR-RES

SMILES: CC1C2CC(C(C3C(=O)C4CC3C(C)(C)C4C)C2=O)C1(C)C (stereo not drawn)
- GI50 [1]: > 100 µM (inactive)
- GI50 [2]: > 100 µM (inactive)
- GI50 [3]: > 100 µM (inactive)
- GI50 [4]: > 100 µM (inactive)
- GI50 [5]: > 100 µM (inactive)
- GI50 [6]: > 100 µM (inactive)
- GI50 [7]: > 100 µM (inactive)
- GI50 [8]: > 100 µM (inactive)
- GI50 [9]: > 100 µM (inactive)
- GI50 [10]: > 100 µM (inactive)
- GI50 [11]: > 100 µM (inactive)
- GI50 [12]: > 100 µM (inactive)
- GI50 [13]: > 100 µM (inactive)
- GI50 [14]: > 100 µM (inactive)
- GI50 [15]: > 100 µM (inactive)
- GI50 [16]: > 100 µM (inactive)
- GI50 [17]: > 100 µM (inactive)
- GI50 [18]: > 100 µM (inactive)
- GI50 [19]: > 100 µM (inactive)
- GI50 [20]: > 100 µM (inactive)
- GI50 [21]: > 100 µM (inactive)
- GI50 [22]: > 100 µM (inactive)
- GI50 [23]: > 100 µM (inactive)
- GI50 [24]: > 100 µM (inactive)
- GI50 [25]: > 100 µM (inactive)
- GI50 [26]: > 100 µM (inactive)
- GI50 [27]: > 100 µM (inactive)
- GI50 [28]: > 100 µM (inactive)
- GI50 [29]: > 100 µM (inactive)
- GI50 [30]: > 100 µM (inactive)
- GI50 [31]: > 100 µM (inactive)
- GI50 [32]: > 100 µM (inactive)
- GI50 [33]: > 100 µM (inactive)
- GI50 [34]: > 100 µM (inactive)
- GI50 [35]: > 100 µM (inactive)
- GI50 [36]: > 100 µM (inactive)
- GI50 [37]: > 100 µM (inactive)
- GI50 [38]: > 100 µM (inactive)
- GI50 [39]: > 100 µM (inactive)
- GI50 [40]: > 100 µM (inactive)
- GI50 [41]: > 100 µM (inactive)
- GI50 [42]: > 100 µM (inactive)
- GI50 [43]: > 100 µM (inactive)
- GI50 [44]: > 100 µM (inactive)
- GI50 [45]: > 100 µM (inactive)
- GI50 [46]: > 100 µM (inactive)
- GI50 [47]: > 100 µM (inactive)
- GI50 [48]: > 100 µM (inactive)
- GI50 [49]: > 100 µM (inactive)
- GI50 [50]: > 100 µM (inactive)
- GI50 [51]: > 100 µM (inactive)
- GI50 [52]: > 100 µM (inactive)
- GI50 [53]: > 100 µM (inactive)
- GI50 [54]: > 100 µM (inactive)

SMILES: O=C(c1c(F)c(F)c(F)c(F)c1F)n1c(=S)n(C(=O)c2c(F)c(F)c(F)c(F)c2F)c2ccccc21
- GI50 [1]: > 100 µM (inactive)
- GI50 [2]: > 100 µM (inactive)
- GI50 [3]: > 10 µM (inactive)
- GI50 [4]: > 100 µM (inactive)
- GI50 [5]: > 100 µM (inactive)
- GI50 [6]: 24.7 µM (inactive)
- GI50 [7]: > 100 µM (inactive)
- GI50 [8]: > 100 µM (inactive)
- GI50 [9]: 64 µM (inactive)
- GI50 [10]: > 100 µM (inactive)
- GI50 [11]: > 100 µM (inactive)
- GI50 [12]: > 100 µM (inactive)
- GI50 [14]: > 100 µM (inactive)
- GI50 [15]: > 100 µM (inactive)
- GI50 [16]: 12.9 µM (inactive)
- GI50 [17]: 82.4 µM (inactive)
- GI50 [18]: 39.9 µM (inactive)
- GI50 [55]: > 100 µM (inactive)
- GI50 [21]: > 100 µM (inactive)
- GI50 [56]: 35.7 µM (inactive)
- GI50 [22]: > 100 µM (inactive)
- GI50 [23]: > 100 µM (inactive)
- GI50 [24]: > 100 µM (inactive)
- GI50 [25]: > 100 µM (inactive)
- GI50 [26]: > 100 µM (inactive)
- GI50 [27]: 46.5 µM (inactive)
- GI50 [28]: 95.5 µM (inactive)
- GI50 [29]: 49.9 µM (inactive)
- GI50 [30]: > 100 µM (inactive)
- GI50 [57]: > 100 µM
- GI50 [31]: > 100 µM (inactive)
- GI50 [32]: 69.8 µM (inactive)
- GI50 [33]: > 100 µM (inactive)
- GI50 [34]: 39.9 µM (inactive)
- GI50 [35]: > 100 µM (inactive)
- GI50 [38]: > 100 µM (inactive)
- GI50 [39]: > 100 µM (inactive)
- GI50 [40]: 59.2 µM (inactive)
- GI50 [58]: 44.4 µM (inactive)
- GI50 [42]: > 100 µM (inactive)
- GI50 [43]: 80.5 µM (inactive)
- GI50 [44]: 22.2 µM (inactive)
- GI50 [46]: > 100 µM (inactive)
- GI50 [48]: 12.3 µM (inactive)
- GI50 [49]: > 100 µM (inactive)
- GI50 [50]: > 100 µM (inactive)
- GI50 [51]: 20 µM (inactive)
- GI50 [52]: > 100 µM (inactive)

SMILES: CCC(Sc1cc(Cl)c(C)cc1S(=O)(=O)Nc1nc(N)nc(N(C)C)n1)C(=O)O (stereo not drawn)
- GI50 [1]: > 10 µM (inactive)
- GI50 [2]: > 10 µM (inactive)
- GI50 [4]: > 10 µM (inactive)
- GI50 [5]: > 10 µM (inactive)
- GI50 [7]: > 10 µM (inactive)
- GI50 [8]: > 10 µM (inactive)
- GI50 [9]: > 10 µM (inactive)
- GI50 [10]: > 10 µM (inactive)
- GI50 [11]: > 10 µM (inactive)
- GI50 [12]: > 10 µM (inactive)
- GI50 [13]: > 10 µM (inactive)
- GI50 [14]: > 10 µM (inactive)
- GI50 [15]: > 10 µM (inactive)
- GI50 [16]: > 10 µM (inactive)
- GI50 [17]: > 10 µM (inactive)
- GI50 [18]: > 10 µM (inactive)
- GI50 [19]: > 10 µM (inactive)
- GI50 [20]: > 10 µM (inactive)
- GI50 [55]: > 10 µM (inactive)
- GI50 [21]: > 10 µM (inactive)
- GI50 [56]: > 10 µM (inactive)
- GI50 [22]: > 10 µM (inactive)
- GI50 [23]: > 10 µM (inactive)
- GI50 [24]: > 10 µM (inactive)
- GI50 [25]: > 10 µM (inactive)
- GI50 [26]: > 10 µM (inactive)
- GI50 [27]: > 10 µM (inactive)
- GI50 [28]: > 10 µM (inactive)
- GI50 [29]: > 10 µM (inactive)
- GI50 [30]: > 10 µM (inactive)
- GI50 [57]: > 10 µM
- GI50 [31]: > 10 µM (inactive)
- GI50 [32]: > 10 µM (inactive)
- GI50 [33]: > 10 µM (inactive)
- GI50 [34]: > 10 µM (inactive)
- GI50 [59]: > 10 µM (inactive)
- GI50 [35]: > 10 µM (inactive)
- GI50 [36]: > 10 µM (inactive)
- GI50 [37]: > 10 µM (inactive)
- GI50 [39]: > 10 µM (inactive)
- GI50 [40]: > 10 µM (inactive)
- GI50 [41]: > 10 µM (inactive)
- GI50 [58]: > 10 µM (inactive)
- GI50 [42]: > 10 µM (inactive)
- GI50 [43]: > 10 µM (inactive)
- GI50 [44]: > 10 µM (inactive)
- GI50 [45]: > 10 µM (inactive)
- GI50 [46]: > 10 µM (inactive)
- GI50 [47]: > 10 µM (inactive)
- GI50 [48]: > 10 µM (inactive)
- GI50 [49]: > 10 µM (inactive)
- GI50 [50]: > 10 µM (inactive)
- GI50 [51]: > 10 µM (inactive)
- GI50 [52]: > 10 µM (inactive)
- GI50 [53]: > 10 µM (inactive)
- GI50 [54]: > 10 µM (inactive)
